{"source": "patent US9695155B2", "about": "“Herbicidal substituted pyrimidinyloxy benzene compounds” (E. I. DU PONT DE NEMOURS AND COMPANY, priority 2013, dated 2017)", "key": {"[1]": {"test_system": "pigweed", "test": "Test A preemergence", "type": "in vivo, Amaranthus retroflexus", "conditions": "Amaranthus retroflexus, pre-emergence, 0 to 100 scale where 0 is no effect and 100 is complete control", "outline": "(§1)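 Visual 0–100 rating (100 = complete control) taken about 10 d post-treatment relative to untreated checks. Preemergence: directed soil spray on sown loam/sand pots. Postemergence: seedlings 2–10 cm, 1–2 leaf. Non-phytotoxic solvent formulation with surfactant.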"}, "[2]": {"test_system": "pigweed", "test": "Test A postemergence", "type": "in vivo, Amaranthus retroflexus", "conditions": "Amaranthus retroflexus, post-emergence, 0 to 100 scale where 0 is no effect and 100 is complete control", "outline": "as §1"}, "[3]": {"test_system": "sedge, umbrella", "test": "Test B flooded paddy test", "type": "in vivo, Cyperus difformis", "conditions": "Cyperus difformis, Flood, 250 g ai/ha; 0 to 100 scale where 0 is no effect and 100 is complete control; read-out: Plant response rating, Sedge, Umbrella", "outline": "(§2)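 Seedlings are raised to two leaves, flooded to a depth of 3 cm and dosed by adding the compound to the floodwater. Water level is kept constant, and plants are scored visually versus controls 13–15 days later (0 = no effect, 100 = complete control).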"}, "[4]": {"test_system": "Heteranthera limosa", "test": "Test B flooded paddy test", "type": "in vivo", "conditions": "Heteranthera limosa, Flood, 250 g ai/ha; 0 to 100 scale where 0 is no effect and 100 is complete control; read-out: Plant response rating, Ducksalad", "outline": "as §2"}, "[5]": {"test_system": "barnyardgrass", "test": "Test B flooded paddy test", "type": "in vivo, Echinochloa crus-galli", "conditions": "Echinochloa crus-galli; Flood, 250 g ai/ha; 0 to 100 scale where 0 is no effect and 100 is complete control; read-out: Plant response rating, Barnyardgrass", "outline": "as §2"}, "[6]": {"test_system": "wheat, winter", "test": "Test C postemergence", "type": "in vivo, Triticum aestivum", "outline": "(§3)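 Seeds are planted in blended loam soil and sand and treated preemergence, while seedlings in a peat moss/vermiculite medium receive postemergence sprays at 2 to 18 cm height. All plants stay in the greenhouse for 13 to 15 days before visual comparison with controls on a 0–100 scale.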"}, "[7]": {"test_system": "corn", "test": "Test C postemergence", "type": "in vivo, Zea mays", "conditions": "Zea mays, post-emergence", "outline": "as §3"}, "[8]": {"test_system": "large (Lg) crabgrass", "test": "Test C postemergence", "type": "in vivo, Digitaria sanguinalis", "conditions": "Digitaria sanguinalis, post-emergence", "outline": "as §3"}, "[9]": {"test_system": "johnsongrass", "test": "Test C postemergence", "type": "in vivo, Sorghum halepense", "outline": "as §3"}, "[10]": {"test_system": "barnyardgrass", "test": "Test C postemergence", "type": "in vivo, Echinochloa crus-galli", "conditions": "Echinochloa crus-galli, post-emergence", "outline": "as §3"}, "[11]": {"test_system": "oilseed rape", "test": "Test C postemergence", "type": "in vivo, Brassica napus", "outline": "as §3"}, "[12]": {"test_system": "waterhemp", "test": "Test C postemergence", "type": "in vivo, Amaranthus rudis", "outline": "as §3"}, "[13]": {"test_system": "chickweed", "test": "Test C postemergence", "type": "in vivo, Stellaria media", "conditions": "Stellaria media, post-emergence", "outline": "as §3"}, "[14]": {"conditions": "31 g ai/ha, postemergence, visual rating, scale 0 to 100 (0 no effect, 100 complete control), 13 to 15 days"}}}
{"smiles": "FC(F)c1cn(-c2ccccc2Oc2ncc(Cl)cn2)nn1", "note": "[Compound 147, 5-chloro-2-[2-[4-(difluoromethyl)-1H-1,2,3-triazol-1-yl]phenoxy]pyrimidine]", "values": [{"measurement": "pest or weed control at 125 g/ha", "setting": "[1]; 125 g ai/ha, read-out: Plant response rating, Pigweed", "value": 100, "unit": "%"}, {"measurement": "pest or weed control at 500 g/ha", "setting": "[1]; 240 h, 500 g ai/ha, read-out: Pigweed plant response rating", "value": 100, "unit": "%"}, {"measurement": "pest or weed control at 500 g/ha", "setting": "[2]; 500 g ai/ha, read-out: Plant response rating, Pigweed", "value": 100, "unit": "%"}, {"measurement": "pest or weed control at 125 g/ha", "setting": "[2]; 240 h, 125 g ai/ha, read-out: Pigweed plant response rating", "value": 100, "unit": "%"}, {"measurement": "pest or weed control at 250 g/ha", "setting": "[3]", "value": 75, "unit": "%"}, {"measurement": "pest or weed control at 250 g/ha", "setting": "[4]", "value": 80, "unit": "%"}, {"measurement": "pest or weed control at 250 g/ha", "setting": "[5]", "value": 35, "unit": "%"}, {"measurement": "Wheat plant response rating", "setting": "[6]; [14]", "value": 5}, {"measurement": "plant injury at 16 g/ha", "setting": "[6]; Triticum aestivum, post-emergence, 16 g ai/ha, postemergence, 0 is no effect, 100 is complete control, read-out: Plant response rating (0 to 100), Wheat", "value": 0, "unit": "%"}, {"measurement": "plant injury at 125 g/ha", "setting": "[6]; Triticum aestivum, post-emergence, 125 g ai/ha, postemergence, visual rating, scale 0 to 100 (0 no effect, 100 complete control), read-out: Plant response rating, Wheat", "value": 15, "unit": "%"}, {"measurement": "plant injury at 62 g/ha", "setting": "[6]; Triticum aestivum, post-emergence, Postemergence, 62 g ai/ha, scale 0 to 100 (0 no effect, 100 complete control), read-out: Plant response rating, Wheat", "value": 10, "unit": "%"}, {"measurement": "plant injury at 16 g/ha", "setting": "[7]; 16 g ai/ha, postemergence, 0 is no effect, 100 is complete control, read-out: Plant response rating (0 to 100), Corn", "value": 5, "unit": "%"}, {"measurement": "plant injury at 31 g/ha", "setting": "[7]; 31 g ai/ha, postemergence, visual rating, scale 0 to 100 (0 no effect, 100 complete control), 13 to 15 days, read-out: Corn plant response rating", "value": 5, "unit": "%"}, {"measurement": "Corn plant response rating (crop injury, 0 = no effect, 100 = complete kill) at 125 g/ha", "setting": "[7]; 125 g ai/ha, postemergence, visual rating, scale 0 to 100 (0 no effect, 100 complete control)", "value": 10, "unit": "%"}, {"measurement": "Corn plant response rating (crop injury, 0 = no effect, 100 = complete kill) at 62 g/ha", "setting": "[7]; Postemergence, 62 g ai/ha, scale 0 to 100 (0 no effect, 100 complete control)", "value": 5, "unit": "%"}, {"measurement": "pest or weed control at 16 g/ha", "setting": "[8]; 16 g ai/ha, postemergence, 0 is no effect, 100 is complete control, read-out: Plant response rating (0 to 100), Crabgrass, Large", "value": 5, "unit": "%"}, {"measurement": "pest or weed control at 31 g/ha", "setting": "[8]; 31 g ai/ha, postemergence, visual rating, scale 0 to 100 (0 no effect, 100 complete control), 13 to 15 days, read-out: Crabgrass, Large plant response rating", "value": 5, "unit": "%"}, {"measurement": "pest or weed control at 125 g/ha", "setting": "[8]; 125 g ai/ha, postemergence, visual rating, scale 0 to 100 (0 no effect, 100 complete control), read-out: Plant response rating, Crabgrass, Large", "value": 10, "unit": "%"}, {"measurement": "pest or weed control at 62 g/ha", "setting": "[8]; Postemergence, 62 g ai/ha, scale 0 to 100 (0 no effect, 100 complete control), read-out: Plant response rating, Crabgrass, Large", "value": 10, "unit": "%"}, {"measurement": "Johnsongrass plant response rating", "setting": "[9]; [14]", "value": 5}, {"measurement": "pest or weed control at 16 g/ha", "setting": "[9]; Sorghum halepense, post-emergence, 16 g ai/ha, postemergence, 0 is no effect, 100 is complete control, read-out: Plant response rating (0 to 100), Johnsongrass", "value": 5, "unit": "%"}, {"measurement": "pest or weed control at 125 g/ha", "setting": "[9]; Sorghum halepense, post-emergence, 125 g ai/ha, postemergence, visual rating, scale 0 to 100 (0 no effect, 100 complete control), read-out: Plant response rating, Johnsongrass", "value": 10, "unit": "%"}, {"measurement": "pest or weed control at 62 g/ha", "setting": "[9]; Sorghum halepense, post-emergence, Postemergence, 62 g ai/ha, scale 0 to 100 (0 no effect, 100 complete control), read-out: Plant response rating, Johnsongrass", "value": 5, "unit": "%"}, {"measurement": "pest or weed control at 16 g/ha", "setting": "[10]; 16 g ai/ha, postemergence, 0 is no effect, 100 is complete control, read-out: Plant response rating (0 to 100), Barnyardgrass", "value": 0, "unit": "%"}, {"measurement": "pest or weed control at 31 g/ha", "setting": "[10]; 31 g ai/ha, postemergence, visual rating, scale 0 to 100 (0 no effect, 100 complete control), 13 to 15 days, read-out: Barnyardgrass plant response rating", "value": 5, "unit": "%"}, {"measurement": "pest or weed control at 125 g/ha", "setting": "[10]; 125 g ai/ha, postemergence, visual rating, scale 0 to 100 (0 no effect, 100 complete control), read-out: Plant response rating, Barnyardgrass", "value": 10, "unit": "%"}, {"measurement": "pest or weed control at 62 g/ha", "setting": "[10]; Postemergence, 62 g ai/ha, scale 0 to 100 (0 no effect, 100 complete control), read-out: Plant response rating, Barnyardgrass", "value": 5, "unit": "%"}, {"measurement": "Oilseed Rape plant response rating", "setting": "[11]; [14]", "value": 40}, {"measurement": "plant injury at 16 g/ha", "setting": "[11]; Brassica napus, post-emergence, 16 g ai/ha, postemergence, 0 is no effect, 100 is complete control, read-out: Plant response rating (0 to 100), Oilseed Rape", "value": 25, "unit": "%"}, {"measurement": "plant injury at 125 g/ha", "setting": "[11]; Brassica napus, post-emergence, 125 g ai/ha, postemergence, visual rating, scale 0 to 100 (0 no effect, 100 complete control), read-out: Plant response rating, Oilseed Rape", "value": 95, "unit": "%"}, {"measurement": "plant injury at 62 g/ha", "setting": "[11]; Brassica napus, post-emergence, Postemergence, 62 g ai/ha, scale 0 to 100 (0 no effect, 100 complete control), read-out: Plant response rating, Oilseed Rape", "value": 75, "unit": "%"}, {"measurement": "Waterhemp plant response rating", "setting": "[12]; [14]", "value": 55}, {"measurement": "pest or weed control at 16 g/ha", "setting": "[12]; Amaranthus tuberculatus, post-emergence, 16 g ai/ha, postemergence, 0 is no effect, 100 is complete control, read-out: Plant response rating (0 to 100), Waterhemp", "value": 40, "unit": "%"}, {"measurement": "pest or weed control at 125 g/ha", "setting": "[12]; Amaranthus tuberculatus, post-emergence, 125 g ai/ha, postemergence, visual rating, scale 0 to 100 (0 no effect, 100 complete control), read-out: Plant response rating, Waterhemp", "value": 70, "unit": "%"}, {"measurement": "pest or weed control at 62 g/ha", "setting": "[12]; Amaranthus tuberculatus, post-emergence, Postemergence, 62 g ai/ha, scale 0 to 100 (0 no effect, 100 complete control), read-out: Plant response rating, Waterhemp", "value": 85, "unit": "%"}, {"measurement": "pest or weed control at 16 g/ha", "setting": "[13]; 16 g ai/ha, postemergence, 0 is no effect, 100 is complete control, read-out: Plant response rating (0 to 100), Chickweed", "value": 15, "unit": "%"}, {"measurement": "pest or weed control at 31 g/ha", "setting": "[13]; 31 g ai/ha, postemergence, visual rating, scale 0 to 100 (0 no effect, 100 complete control), 13 to 15 days, read-out: Chickweed plant response rating", "value": 70, "unit": "%"}, {"measurement": "pest or weed control at 125 g/ha", "setting": "[13]; 125 g ai/ha, postemergence, visual rating, scale 0 to 100 (0 no effect, 100 complete control), read-out: Plant response rating, Chickweed", "value": 90, "unit": "%"}, {"measurement": "pest or weed control at 62 g/ha", "setting": "[13]; Postemergence, 62 g ai/ha, scale 0 to 100 (0 no effect, 100 complete control), read-out: Plant response rating, Chickweed", "value": 75, "unit": "%"}]}
